In US6774144B1, “Methods and formulations for the treatment of infectious bursal disease in avian subjects” (The University of North Carolina at Chapel Hill, priority 1999, dated 2004):

How the values were obtained:
[1] = test system: IBDV Variant A; type: cell-based, infectious bursal disease virus; conditions: 0.1 mM drug
[2] = test system: cells; assay: MTT assay for cell viability (cell toxicity); type: cell-based; conditions: highest concentration tested 1 mM
Description: BABIM, SW066, and DAP092 were assessed for cell toxicity using the MTT assay for cell viability described in T. Mossman, J. Immunol. Methods 65, 55-63 (1983). […] 10 μl of MTT reagent was added to each wall and incubated for four hours at 38° C. Acid-isopropanol was added to stop the reaction and plates were read within one hour at 570 nm and 630 nm. The 630 nm reading was subtracted from the 570 nm reading. No toxicity was reported for BABIM.

[3] = test system: APHIS IBDV strain; assay: Evaluation of drug effect to prevent or inhibit IBD, oral SW066 (Example 11); type: in vivo, chicks
Description: Chicks were placed in four groups of nine birds each. The four groups were: (1) no virus control (placebo), (2) no virus control (treated with SW066), (3) APHIS IBDV strain at 130 EID (placebo), and (4) APHIS IBDV strain at 130 EID (treated with SW066). The birds were challenged at two weeks of age with 10 μL of the APHIS strain divided between the eye and nares. The drug was administered orally, one mL at a concentration of five mg/mL. […] Daily drug treatment began the same day and 30 minutes prior to challenge. After seven days, survivors were sacrificed and necropsied.
The virus is believed to cause necrosis in the bursa and to reach a plateau of virus level at three days post-challenge. As the inflammation begins to subside, the organ decreases in size and is severely atrophied at seven to ten days post-challenge. The bursa weight is accordingly a measure of bursal disease severity and was used in this experiment to detect differences between treatment groups.

[4] = test system: Delaware Variant A strain of IBDV; assay: In vitro IBDV replication assay in chick embryo fibroblasts (viral antigen capture ELISA); conditions: compounds maintained in the culture medium throughout
[5] = test system: IBDV; assay: Virucidal effect: viability of virions produced in the presence of drug, second set of CEF cultures; type: cell-based, infectious bursal disease virus
Description: IBDV-infected cells were treated with varying concentrations (0.01 μM, 0.1 μM, 1 μM, 10 μM and 100 μM) of SW066 for 24 hours. After 24 hours, SW066 was washed away from the cell. After 72 hours of total incubation time (i.e., after the life cycle of IBDV is predicted to be complete), the resulting virions were harvested, as described above.
In order to determine if the virions produced in the presence of drug are viable, varying dilutions of these viral preparations were used to inoculate a second set of CEF cultures. Concentrations of the viral dilutions were as follows: 1.00E-10, 1.00E-09, 1.00E-08, 1.00E-07, 1.00E-06 and 1.00E-05. After 72 hours of incubation, cells were treated by a freeze-thaw method to harvest viral particles, and were assayed by ELISA as described in Example 2.

[6] = test system: APHIS IBDV strain; assay: Evaluation of drug effect to prevent or inhibit IBD, SW066 intravenous and prodrug oral (Example 12); type: in vivo, chicks
Description: The procedure according to Example 11 was carried out, with a variation in which chicks were placed in six groups of ten birds each, as follows: (1) no virus control (oral placebo), (2) no virus control (SW066 intravenous), (3) no virus control (prodrug of SW066 oral), (4) APHIS IBDV strain 130 EID (oral placebo), (5) APHIS IBDV strain 130 EID (SW066 intravenous), and (6) APHIS IBDV strain 130 EID (prodrug of SW066 oral). The birds were challenged at three weeks of age with 100 μl of APHIS strain divided between the eye and nares. Drug was administered intravenously or orally. The prodrug version of SW066 was used via the oral route to enhance absorption. Daily drug treatment began the same day and thirty minutes prior to challenge. After seven days, survivors were sacrificed and necropsied.

[7] = test system: IBDV; assay: Trypsin competition experiment; type: cell-based, infectious bursal disease virus; conditions: trypsin 1 mg/ml added to the cells in culture
Description: It is known that the addition of trypsin can enhance the attachment and penetration of respiratory syncytial virus and rotavirus. A trypsin competition experiment was performed in order to confirm that the activity of the inventive compounds of the present invention is not the result of protease-mediated virus attachment or penetration, as follows: trypsin (1 mg/ml) was added to the cells in culture described above in Example 6.

[8] = test system: IBDV; type: cell-based, infectious bursal disease virus
[9] = test system: APHIS strain IBDV; assay: Leghorn drug study (Example 13); type: in vivo, Leghorns; conditions: for protection against IBDV (rank order): 100 EID APHIS IBDV, one mL of 4 mg/ml orally at challenge, 24 and 48 hours PI, necropsy three days post-challenge
Description: The procedure according to Example 12 was carried out with the following modifications: the drugs SW066, DB197, DB528, DB203 and DAP092 were tested in three week old Leghorns for protection against 100 EID of APHIS strain IBDV. The drugs were suspended in histidine-saline and used at a concentration of 4 mg/ml. One mL of drug was administered orally on the day of challenge (30 minutes prior to challenge), 24 hours PI and 48 hours PI. Birds were euthanised by CO2 inhalation and necropsied at three days post-challenge. Each drug and placebo cohort consisted of eight leghorns. Birds were weighed and sorted on the day of challenge to co-mingle birds of different weights and monitor drug dose per body weight. Birds were raised in isolation units. Each unit held 12 birds, two birds for each of the six cohorts (i.e., placebo, SW066, DB197, DB528, DB203 and DAP092). In addition, 12 uninfected birds were housed in a separate isolation unit.
The viral load of the bursa was determined by antigen capture ELISA, as described in Example 2, while absolute lymphocyte cell counts were determined by hemocytometer.

[10] = test system: APHIS isolate of IBDV; assay: In vivo drug treatment of IBDV-challenged SPF leghorn chickens (Example 10); conditions: for Lymphocyte Population Per Gram of Bursal tissue, Percentage Uninfected Control: 100 EID APHIS IBDV at three weeks of age, 20 mg/kg, half in the nares, half in the cloaca; for Lymphocyte Population Per Gram of Bursal tissue, Percentage Uninfected Control / appearance of bursas upon necropsy: three days; for appearance of bursas upon necropsy: 20 mg/kg nares/cloaca; for lymphocyte populations: three days after infection
Description: SPF leghorn chickens were challenged at three weeks of age with an 100 EID APHIS isolate of IBDV. Approximately 12 birds were contained in an isolator unit with four units being employed. In each isolator unit, two birds received either drug or a placebo. One unit contained uninfected controls. The birds are treated with the drugs SW066, DAP092, DB453, DB197, and DB203 for three days. Half of the drug dosage was administered in the nares, while the second half was administered in the cloaca, at a dosage of 20 mg/kg. At necropsy, the birds were weighed, their bursa removed, weighed, and ground with a tissue homogenizer. The ground bursa material was evaluated for lymphocyte counts and viral load.

## N=C(N)c1ccc2oc3ccc(C(=N)N)cc3c2c1 [SW066]
[1]
  effectiveness in decreasing virion formation (comparison of the three compounds): most effective
[1]; even at the high concentrations of virus
  effect in reducing IBDV production: significant effect in reducing IBDV production
[1]; highest concentration of virus
  cytopathic effect (CPE), inverted microscope: Very little CPE
[2]
  cell toxicity (MTT assay): some toxicity may be associated
[3]; 130 EID APHIS IBDV, oral one mL of five mg/mL daily, seven days, p=0.05
  bursa weights versus placebo group: higher in the drug treatment group compared to the placebo group
[3]; 130 EID APHIS IBDV, oral, seven days
  post-challenge titers, infected drug versus placebo group: not significantly different
[3]; groups of nine birds, same number died with placebo
  deaths in the challenge group: Two birds died
[3]; infected birds, placebo group all scored four, remaining drug birds scored four
  bursa histology score: two birds in the drug group (n=7) were scored as three
[3]; oral, 130 EID
  protection from IBDV induced B-cell depletion: some protection
[4]
  inhibition of IBDV replication (virion formation): most significant decrease of virion formation
[5]; 10 μM of drug
  long term drug effect in the second set of cultures: long term drug effect was also observed for some virus dilutions
[5]; drug for 24 hours then washed away, virions harvested at 72 hours
  duration of the virucidal effect: not transient
[5]; first set of cultures treated at 100 μM, with the exception of the 10^-5 dilution of virus
  virus propagation in the second set of cultures: did not propagate virus
[5]; with the 10^-10 dilution of virus
  lowest concentration of drug that demonstrated anti-viral activity: 1 µM
[6]; SW066 intravenous or prodrug oral, seven days
  bursa weight of survivors, difference between groups: No statistical significant difference
[6]; SW066 intravenous, APHIS IBDV 130 EID, ten birds, placebo 40%
  mortality: 10%
[7]
  effect of the presence of trypsin on the drug's activity: not found to inhibit the drug's activity
[8]; added after 12 hours
  virus production when drug is added after infection: very little potential effect on virus production
[8]; added prior to the 12 hour incubation time point
  virus replication when drug is added after infection: potentially substantial inhibition of virus replication
[8]; drug remains in the culture past the one hour time point
  virus production when drug is removed by washing: significant decrease in virus production
[8]; removed prior to one hour
  virion formation when drug is removed by washing: little or no affect on virion formation
[9]
  protection against IBDV (rank order): DB197>DB203>DB528>DAP092>SW066
[10]
  Lymphocyte Population Per Gram of Bursal tissue, Percentage Uninfected Control: 4.3 Percentage Uninfected Control

## Cc1cnc(-c2ccc(C3=NCCN3)cc2)nc1-c1ccc(C2=NCCN2)cc1 [DB197]
[9]
  protection against IBDV (rank order): the most protection
[9]; t-test, p-value=0.01
  lymph per bursa cell number versus uninfected controls: significantly different from uninfected controls
[9]; three days post-challenge
  lymph per bursa cell number (rank among groups): the highest
[10]
  appearance of bursas upon necropsy: appeared identical to those from the uninfected control group
  Lymphocyte Population Per Gram of Bursal tissue, Percentage Uninfected Control: 60.5 Percentage Uninfected Control
  lymphocyte populations: maintenance of relatively normal lymphocyte populations

## COc1cc(C2=NCCN2)ccc1-c1ccnc(-c2ccc(C3=NCCN3)cc2)n1 [DB203]
[9]
  protection against IBDV (rank order): DB197>DB203>DB528>DAP092>SW066
[10]
  appearance of bursas upon necropsy: appeared identical to those from the uninfected control group
  Lymphocyte Population Per Gram of Bursal tissue, Percentage Uninfected Control: 51.3 Percentage Uninfected Control
  lymphocyte populations: maintenance of relatively normal lymphocyte populations

## N=C(N)c1ccc2nc(Cc3nc4ccc(C(=N)N)cc4[nH]3)[nH]c2c1 [BABIM]
[2]
  cell toxicity (MTT assay): No toxicity
[4]
  inhibition of IBDV replication (virion formation): most significant decrease of virion formation
